The values that follow come from patent publication US20220112194A1, “COMPOUNDS TARGETING PRMT5” (ALIGOS THERAPEUTICS, INC., priority 2020, published 2022).

For orientation: pIC50 means −log10 of the IC50, conventionally taken in molar units. Read a high pIC50 as a small IC50. By pEC50 is commonly meant the EC50 on a negative log10 scale, so that one unit is a factor of ten.

pEC50, pIC50: −log10 of the molar value.

Test [1] concerns the target T1, PRMT5/MEP50 (Homo sapiens, UniProt O14744). Description: PRMT5/MEP50 enzyme inhibition assay, Assay 1 (radioisotope filter binding, 3H-SAM, histone H2A). Format: biochemical. Particulars: 1 μM 3H-SAM, 5 μM histone H2A, 60 min at 30° C. Here is the method:
Compounds were tested for inhibition of methyltransferase activity in a radioisotope filter binding assay, similar to previously described in A selective inhibitor of PRMT5 with in vivo and in vitro potency in MCL models. Chan-Penebre et al., Nat Chem Biol. (2015) 11(6):432-7. In the standard PRMT5/MEP50 enzyme inhibition assay, compounds were tested in a 10-dose IC50 mode with 3- or 5-fold serial dilution, in singlet, starting at 1, 10, or 100 μM. Control compound, SAH (S-(5′-Adenosyl)-L-homocysteine), was tested in 10-dose IC50 mode with 3-fold serial dilution starting at 100 μM. Reactions were carried out at 1 μM 3H-SAM (PerkinElmer) and 5 μM histone H2A as substrates for methyl transfer. Following a 60 min incubation at 30° C., the reaction was stopped with 20% TCA. Each reaction was spotted on a filter plate (MultiScreen FB Filter plate, Millipore) and washed 5 times in PBS, after which scintillation fluid was added and signal was detected in a scintillation counter. Percent enzyme activity was calculated based on no inhibitor DMSO control as 100% activity. EC50 values were determined in GraphPad Prism 8 using the [inhibitor] vs. response—Variable slope (four parameters) function.
(§1) Compounds of Formula (I) show activity in this assay. A value of ‘A’ in the table below indicates an IC50 of <1 nM, a value of ‘B’ indicates an IC50≥1 nM to ≤100 nM, and a value of ‘C’ indicates an IC50 value of >100 nM.

For test [2], the system named is A549 lung carcinoma cells. Description: Cell proliferation assay A549 (CellTiter-Glo, 7 days). The test is classed as cell-based. The note with it: Homo sapiens, A549, 168 h, A549, 7 days, cell viability CellTiter-Glo 2.0. Here is the method: (§2) HepG2 hepatoma cells (ATCC, HB-8065) were maintained in DMEM with high glucose (Lonza, 12-914F) supplemented with 10% fetal bovine serum (FBS; Biowest, S181B-500) and 2 mM L-glutamine (Biowest, X0551-100) at 37° C. and 5% CO2. A549 lung carcinoma cells (ATCC, CCL-185) were maintained in F-12K medium (ThermoFisher 21127030) supplemented with 10% FBS at 37° C. and 5% CO2. Exponentially growing HepG2 or A549 were plated in white, clear-bottom 96-well plates (Corning, 3903) at a cell density of 2000 (HepG2) or 350 (A549) cells per well in 199 μL of HepG2 medium. Next, 1 μL of a 5-fold 9-point dilution series of test compound in DMSO was added to the different wells. Cells were incubated at 37° C. 5% CO2 for 7 days. Cell viability was assessed on day 7 with the CellTiter-Glo 2.0 Cell Viability assay kit (Promega, G9243) to quantify the intracellular amounts of ATP: first, 100 μL of cell culture medium was removed from each well, next 100 μL of CellTiter-Glo® 2.0 Reagent was added and plates were shaken for 2 minutes on an orbital shaker. After 10 minutes stabilization at room temperature, read-out was performed on a ThermoFisher VarioSkan Lux plate reader. Counts were normalized to DMSO control (0% inhibition) and the cytotoxic control (100% inhibition) and EC50 values were determined in GraphPad Prism 8 using the [Agonist] vs. response—Variable slope (four parameters) function.
(§3) As shown by the data of Table 2, compounds of Formula (I) have activity in this assay. A value of ‘A’ in the table below indicates an EC50 of <20 nM, a value of ‘B’ indicates an EC50≥20 nM to <100 nM, a value of ‘C’ indicates an EC50 value of EC50≥100 nM to <1000 nM and a value of ‘D’ indicates an EC50≥1000 nM
In general terms: Cellular ATP, detected with luciferase, serves as a proxy for viable cell number.

Test [3] addresses T1, PRMT5/MEP50. Description: PRMT5/MEP50 enzyme inhibition assay, Assay 2 (384-well, MALDI mass spectrometry, SAM, histone H4 1-21 peptide). The test is classed as biochemical. Particulars: 1 μM SAM, 0.1 μM histone H4 1-21 peptide, 18-hour incubation at rt. As to the method: Compounds were tested for inhibition of methyltransferase activity in 384-well plate assay format using mass spectrometry technology. In this enzyme inhibition assay, compounds were tested in a 11-dose IC50 mode with 3-serial dilution, in duplicate, starting at 1, 10, or 100 μM. Reactions were carried out at 1 μM SAM and 0.1 μM histone H4 1-21 peptide as substrates for methyl transfer. Following an 18-hour incubation at rt, the reaction was stopped with 0.5% formic acid. Products of the reaction were captured while unreacted substrates were washed away, prior to MALDI mass spectrometry detection and analysis. Percent enzyme activity was calculated based on no inhibitor DMSO control as 100% activity. EC50 values were determined in GraphPad Prism 8 using the [inhibitor] vs. response—Variable slope (four parameters) function.
as §1

For test [4], the system named is HepG2 hepatoma cells. Description: Cell proliferation assay HepG2 (CellTiter-Glo, 7 days). The test is classed as cell-based. The note with it: Homo sapiens, 168 h; HepG2, 7 days, cell viability CellTiter-Glo 2.0. Here is the method:
as §2, §3

T1 sequence (O14744 whole entry): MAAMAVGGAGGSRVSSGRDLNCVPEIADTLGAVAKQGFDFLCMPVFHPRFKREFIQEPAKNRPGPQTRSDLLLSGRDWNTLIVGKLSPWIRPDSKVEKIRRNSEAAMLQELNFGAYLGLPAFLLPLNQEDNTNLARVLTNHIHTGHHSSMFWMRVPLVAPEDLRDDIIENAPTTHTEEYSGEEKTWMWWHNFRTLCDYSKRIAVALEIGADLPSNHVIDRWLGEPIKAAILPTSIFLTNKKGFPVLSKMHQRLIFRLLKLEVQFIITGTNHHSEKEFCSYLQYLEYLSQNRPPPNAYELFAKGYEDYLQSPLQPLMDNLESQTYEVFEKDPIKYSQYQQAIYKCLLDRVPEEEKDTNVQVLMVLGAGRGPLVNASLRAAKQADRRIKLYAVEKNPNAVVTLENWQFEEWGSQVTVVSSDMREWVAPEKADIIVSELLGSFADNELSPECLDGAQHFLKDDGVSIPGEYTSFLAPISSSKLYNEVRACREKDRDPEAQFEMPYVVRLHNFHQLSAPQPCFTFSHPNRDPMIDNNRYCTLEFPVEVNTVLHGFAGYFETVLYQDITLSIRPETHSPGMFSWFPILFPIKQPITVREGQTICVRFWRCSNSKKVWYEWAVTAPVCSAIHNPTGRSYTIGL
T1 sequence (Q9BQA1 whole entry partner): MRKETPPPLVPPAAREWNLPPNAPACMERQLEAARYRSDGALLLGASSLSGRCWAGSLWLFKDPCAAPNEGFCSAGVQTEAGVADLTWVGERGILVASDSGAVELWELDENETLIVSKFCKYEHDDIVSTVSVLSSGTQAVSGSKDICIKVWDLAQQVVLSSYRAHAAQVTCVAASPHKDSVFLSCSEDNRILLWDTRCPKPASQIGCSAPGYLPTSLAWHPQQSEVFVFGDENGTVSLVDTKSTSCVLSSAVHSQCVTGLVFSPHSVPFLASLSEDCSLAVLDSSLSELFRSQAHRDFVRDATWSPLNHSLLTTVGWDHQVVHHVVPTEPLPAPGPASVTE

Consider `C[C@@H]1[C@H](CCc2ccc3ccc(N)nc3c2)[C@@H](O)[C@@H](O)[C@@H]1n1ccc2c(N)ncnc21` [Compound 6], for which the pIC50 in test [1] and in test [3] was 7.00 to 9.00 in each case. The pEC50 in test [2] and in test [4] was not above 6.00 throughout.
